# From patent US20260345584A1, “METHODS AND PHARMACEUTICAL COMPOSITIONS FOR TREATING CHEMOTHERAPY-INDUCED PERIPHERAL NEUROPATHY WITH EG5 INHIBITORS” (UNIVERSITY OF MIAMI, priority 2023, published 2026)
# Assays:
# [1] = test system: mmp13a; test: qPCR mmp13 expression, whole larvae; assay type: in vivo, zebrafish; details: wildtype, 48 hr paclitaxel
# Procedure: Zebrafish larvae (AB/Nacre) were treated in pools of ~20-30 larvae per treatment per biological replicate (BR); each BR consisted of embryos from distinct parents. Larvae were collected into 1.5 ml reaction tubes post-treatment and RNA extraction was performed using the rNeasy Plus Micro kit (Qiagen, Cat. No. 74034). cDNA was synthesized from ~300 ng total RNA using the Superscript IV VILO kit (Thermo Fisher, Cat. No. 11756050). Primers in target genes were designed wherein primers annealed in two exons separated by one or several large introns that could not be amplified with the selected PCR settings, to avoid genomic DNA contamination. Quantitative PCR was performed with the Applied Biosystems QuantStudio 3 using PowerUp SYBR Green (ThermoFisher, Cat No. A25741). Amplification signals for expressed target genes were normalized to zebrafish 18S rRNA signals. qPCR conditions were used as follows: 95 °C for 10 minutes, 40 cycles of 95 °C for 15 seconds, 50 °C for 30 seconds, 72 °C for 30 seconds. Each biological replicate was run in quadruplicate. Data were presented as relative expression compared to control using the delta-vdelta Ct (2^^-ΔΔCt) method.
# Stretching was performed after 96 hr treatment, followed by 2 hr post-stretch fixation, and staining for detection of acetylated tubulin in axons.
# [2] = test system: peripheral neuropathy; test: von Frey behavioral testing; assay type: in vivo, mouse; details: mice, 2 mg/kg paclitaxel i.p. x4
# Text: Molecular mechanisms underlying paclitaxel-induced microtubule fasciculation were then investigated. […] Peripheral neuropathy was correlated with these times points using von Frey behavioral testing, which determined that peak neuropathy was present at day 7 (D7). This identified several biological categories during peak neuropathy with the largest clusters being implicated in extracellular matrix organization (e.g. “ECM”, “collagen-containing ECM”, “collagen trimer”) and cell cycle regulation (e.g. “outer kinetochore”, “kinesin complex”, condensed chromosome, centromeric region”, “mitotic spindle”, “microtubules”), consistent with our findings in zebrafish. Interactome analysis using STRING (Szklarczyk et al., 2021, Nucl. Acids Res 49: D605-D612) to predict protein association networks further identified major clusters involved in cell cycle regulation, which contained various kinesins, microtubule and nucleus regulators, as well as one cluster annotated as “disulfide bond”, consistent with a role for oxidative signal activation (Leonard et al., 2011, Current opinion in chemical biology 15: 88-102) (shown in FIG. 3D).
# [3] = test system: Eg5; test: Eg5 / phospho-Eg5 staining in mouse skin; assay type: in vivo; details: single injection, 20 mg/kg; basal and suprabasal keratinocytes
# Procedure: The mice in each cage were randomly allocated to different treatment groups. Food and water were available ad libitum and experiments were performed during the light cycle (7:00 am to 7:00 pm). Animals were euthanized via CO2 asphyxiation, followed by cervical dislocation. […] The animal's husbandry conformed with established NIH and Institutional Animal Care and Use Committee (IACUC) approved protocols.
# Paws and back skin were collected at predetermined time points, placed in 10% formalin, and stored overnight at 4 °C. Samples were embedded in paraffin and sectioned at 7 μm, deparaffinized, washed with PBS, and incubated at room temperature for 5 min in 0.1% Triton X-100 in PBS and then blocked for 30 min (5% BSA). Sections were incubated with primary antibody diluted in blocking solution, overnight at 4 °C in a humidity chamber. Following PBS washes, sections were incubated for 1 h at room temperature with a secondary antibody. Tissues were mounted and assessed for staining. Antibodies used were against detyrosinated tubulin Millipore AB3201, p-KIF11 Invitrogen PA5-38647, alpha-tubulin Proteintech 66031-1-Ig, mouse Alexa Fluor 488 Invitrogen A21202, and rabbit Alexa flour 546 Invitrogen A10040. DAPI was used for nuclei counterstaining. […]
# [4] = test system: Tau-Bfp2 microtubules in keratinocytes; test: Tau-Bfp2-stabilized microtubules in keratinocytes; assay type: in vivo, zebrafish; details: 96 hr
# Procedure: Fish were anesthetized in 2-phenoxyethanol (1:1000) in Ringer's solution prior to imaging and mounted in 1.2% agarose. EB3-GFP and Tau-Bfp2 were imaged with a scan speed kept at the maximum level in single slice mode with […] for a total of 60s to capture microtubule dynamics. h2a:H2A-GFP time-lapse recordings were produced (Zeiss LSM880 AiryScan confocal microscope) with 1 μm sections recorded every 10 min for 12 hr using 800×800 pixels. All other live fish were imaged using 1024×1024 pixels.
# Microtubule analyses was performed in Imaris 9.5.1 (Bitplane) by measuring the straightness of filaments (microtubules) using the “Filaments—Dendrite Straightness” tool, which was defined as the ratio between […] between two branch points (h). The value was always smaller than 1 since the Dendrite Straightness of 1 defines straight objects.
# EB3-GFP tracking was done in Fiji using the MTrackJ plugin to trace microtubules over time and create Kymographs, measure the velocity, track length, and comet duration. Tracking was also performed using the Spots and Surface tools in Imaris. Settings were initially automatically detected to fit the fluorescence and subsequently modified manually for improved fit. Settings were maintained between treatment groups.
# Tau therefore seems to prevent paclitaxel-induced dfMT formation.
# Thus EB3-GFP plus-ends appeared in part to grow along pre-existing stable microtubules, which could be a means to maintain cellular organization.
structure (smiles),measurement,setting,value
CC(=O)O[C@H]1C(=O)[C@@]2(C)[C@H]([C@H](OC(=O)c3ccccc3)[C@]3(O)C[C@H](OC(=O)[C@H](O)[C@@H](NC(=O)c4ccccc4)c4ccccc4)C(C)=C1C3(C)C)[C@]1(OC(C)=O)CO[C@@H]1C[C@@H]2O [paclitaxel],mmp13 expression,[1],increased mmp13 expression
same,day of peak neuropathy,[2],7 days
same,total and phospho-Eg5 levels,[3],increased total and phospho-Eg5 levels
same,EB3-GFP puncta co-localized with Tau-Bfp2,[4]; Tau-Bfp2 + 22 μM paclitaxel,91.26±1.64%
same,velocity of EB3-GFP plus-ends,[4]; Tau-Bfp2 + paclitaxel,0.184±0.003 μm/s
same,"microtubule straightness (1=straight, 0=curved)",[4]; strong Tau-Bfp2 + paclitaxel,0.98±0.002
